# Assays:
# [1] = molecular target: STE20-like serine/threonine-protein kinase (Homo sapiens) (UniProt Q9H2G2); assay: Inhibition of wild-type human partial length SLK (S14 to A307 residues) expressed in bacterial expression system assessed as residual activity at 1 uM by Kinomescan method relative to control
# [2] = test system: Tyrosine-protein kinase ABL1 (Homo sapiens), P00519 [F317L]; assay: Inhibition of human phosphorylated ABL1 F317L mutant (S229 to K512 residues) expressed in mammalian expression system assessed as residual activity at 1 uM by Kinomescan method relative to control
# [3] = molecular target: Peripheral plasma membrane protein CASK (Homo sapiens) (UniProt O14936); assay: Inhibition of wild-type human partial length CASK (M1 to H315 residues) expressed in mammalian expression system assessed as residual activity at 1 uM by Kinomescan method relative to control
# [4] = molecular target: Tyrosine-protein kinase ABL1 (Homo sapiens) (UniProt P00519); assay: Inhibition of wild-type human non-phosphorylated ABL1 (S229 to K512 residues) expressed in mammalian expression system assessed as residual activity at 1 uM by Kinomescan method relative to control
# [5] = molecular target: Activated CDC42 kinase 1 (Homo sapiens) (UniProt Q07912); assay: Inhibition of wild-type human partial length TNK2 (S159 to D474 residues) expressed in bacterial expression system assessed as residual activity at 1 uM by Kinomescan method relative to control
# Chain of Activated CDC42 kinase 1 (Homo sapiens) (Q07912 whole entry, looked up, the tested form may be a part): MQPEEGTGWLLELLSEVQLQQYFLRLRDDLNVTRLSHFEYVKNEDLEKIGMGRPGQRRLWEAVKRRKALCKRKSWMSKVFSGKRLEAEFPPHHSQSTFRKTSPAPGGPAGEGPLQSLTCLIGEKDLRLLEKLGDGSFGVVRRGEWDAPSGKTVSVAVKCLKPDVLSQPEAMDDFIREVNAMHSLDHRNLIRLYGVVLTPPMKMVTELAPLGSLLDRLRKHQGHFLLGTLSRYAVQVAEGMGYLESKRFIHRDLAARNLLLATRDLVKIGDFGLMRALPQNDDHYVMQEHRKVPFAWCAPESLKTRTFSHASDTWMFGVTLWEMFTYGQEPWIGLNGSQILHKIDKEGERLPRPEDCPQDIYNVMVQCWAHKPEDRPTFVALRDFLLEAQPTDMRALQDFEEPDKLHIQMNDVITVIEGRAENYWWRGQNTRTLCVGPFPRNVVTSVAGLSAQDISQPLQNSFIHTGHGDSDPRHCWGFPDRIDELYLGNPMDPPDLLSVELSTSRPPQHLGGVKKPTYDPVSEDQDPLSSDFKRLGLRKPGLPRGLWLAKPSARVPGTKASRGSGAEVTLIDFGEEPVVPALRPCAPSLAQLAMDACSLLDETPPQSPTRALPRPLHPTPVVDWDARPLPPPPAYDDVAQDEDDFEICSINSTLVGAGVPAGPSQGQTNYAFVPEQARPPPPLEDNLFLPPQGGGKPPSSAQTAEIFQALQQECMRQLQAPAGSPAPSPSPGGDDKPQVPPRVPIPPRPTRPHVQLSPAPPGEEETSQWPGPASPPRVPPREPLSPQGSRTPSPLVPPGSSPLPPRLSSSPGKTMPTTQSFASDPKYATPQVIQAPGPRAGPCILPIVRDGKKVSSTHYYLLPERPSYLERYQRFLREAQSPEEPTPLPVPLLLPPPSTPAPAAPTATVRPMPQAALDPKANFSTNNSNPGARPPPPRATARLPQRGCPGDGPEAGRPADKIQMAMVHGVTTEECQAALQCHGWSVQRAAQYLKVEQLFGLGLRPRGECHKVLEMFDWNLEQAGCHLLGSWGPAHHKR
# [6] = molecular target: Mast/stem cell growth factor receptor Kit (Homo sapiens) (UniProt P10721); assay: Inhibition of wild-type human partial length KIT (I571 to D952 residues) expressed in bacterial expression system assessed as residual activity at 1 uM by Kinomescan method relative to control
# Chain of Mast/stem cell growth factor receptor Kit (Homo sapiens) (P10721 whole entry, the tested form may be a part): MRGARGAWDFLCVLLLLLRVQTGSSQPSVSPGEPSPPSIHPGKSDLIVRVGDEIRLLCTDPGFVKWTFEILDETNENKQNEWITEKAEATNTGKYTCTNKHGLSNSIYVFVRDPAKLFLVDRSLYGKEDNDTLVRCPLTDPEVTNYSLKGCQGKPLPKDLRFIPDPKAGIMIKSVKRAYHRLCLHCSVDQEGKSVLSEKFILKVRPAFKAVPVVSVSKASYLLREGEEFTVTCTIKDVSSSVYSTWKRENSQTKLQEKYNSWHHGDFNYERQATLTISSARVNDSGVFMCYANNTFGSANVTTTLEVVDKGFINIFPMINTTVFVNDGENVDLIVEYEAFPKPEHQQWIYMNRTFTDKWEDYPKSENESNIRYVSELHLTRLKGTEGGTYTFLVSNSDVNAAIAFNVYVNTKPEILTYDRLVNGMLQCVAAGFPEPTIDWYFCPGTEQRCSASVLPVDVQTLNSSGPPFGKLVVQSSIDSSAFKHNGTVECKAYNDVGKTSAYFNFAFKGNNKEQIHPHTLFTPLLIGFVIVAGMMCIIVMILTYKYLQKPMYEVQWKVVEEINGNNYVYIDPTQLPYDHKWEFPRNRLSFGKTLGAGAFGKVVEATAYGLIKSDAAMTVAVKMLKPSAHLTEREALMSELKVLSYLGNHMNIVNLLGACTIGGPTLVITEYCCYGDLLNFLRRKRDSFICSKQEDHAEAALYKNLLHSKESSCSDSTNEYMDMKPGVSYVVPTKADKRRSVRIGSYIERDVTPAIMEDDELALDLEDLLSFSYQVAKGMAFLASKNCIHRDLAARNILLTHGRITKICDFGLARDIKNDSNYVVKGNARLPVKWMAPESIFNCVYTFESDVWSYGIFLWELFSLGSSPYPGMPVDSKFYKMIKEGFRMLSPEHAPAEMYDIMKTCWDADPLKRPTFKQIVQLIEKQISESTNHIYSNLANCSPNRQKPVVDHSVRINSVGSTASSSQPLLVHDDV
# [7] = molecular target: Death-associated protein kinase 1 (Homo sapiens) (UniProt P53355); assay: Inhibition of wild-type human partial length DAPK1 (M1 to F296 residues) expressed in bacterial expression system assessed as residual activity at 1 uM by Kinomescan method relative to control
# [8] = test system: Phosphatidylinositol 4,5-bisphosphate 3-kinase catalytic subunit alpha isoform (Homo sapiens), P42336 [H1047L]; assay: Inhibition of human partial length PIK3CA H1047L mutant (R108 to N1068 residues) expressed in mammalian expression system assessed as residual activity at 1 uM by Kinomescan method relative to control
# [9] = molecular target: Tyrosine-protein kinase receptor Tie-1 (Homo sapiens) (UniProt P35590); assay: Inhibition of wild-type human partial length TIE1 (T819 to A1138 residues) expressed in bacterial expression system assessed as residual activity at 1 uM by Kinomescan method relative to control
# [10] = molecular target: SRSF protein kinase 3 (Homo sapiens) (UniProt Q9UPE1); assay: Inhibition of wild-type human partial length SRPK3 (P41 to P567 residues) expressed in bacterial expression system assessed as residual activity at 1 uM by Kinomescan method relative to control
# Chain of SRSF protein kinase 3 (Homo sapiens) (Q9UPE1 whole entry, the tested form may be a part): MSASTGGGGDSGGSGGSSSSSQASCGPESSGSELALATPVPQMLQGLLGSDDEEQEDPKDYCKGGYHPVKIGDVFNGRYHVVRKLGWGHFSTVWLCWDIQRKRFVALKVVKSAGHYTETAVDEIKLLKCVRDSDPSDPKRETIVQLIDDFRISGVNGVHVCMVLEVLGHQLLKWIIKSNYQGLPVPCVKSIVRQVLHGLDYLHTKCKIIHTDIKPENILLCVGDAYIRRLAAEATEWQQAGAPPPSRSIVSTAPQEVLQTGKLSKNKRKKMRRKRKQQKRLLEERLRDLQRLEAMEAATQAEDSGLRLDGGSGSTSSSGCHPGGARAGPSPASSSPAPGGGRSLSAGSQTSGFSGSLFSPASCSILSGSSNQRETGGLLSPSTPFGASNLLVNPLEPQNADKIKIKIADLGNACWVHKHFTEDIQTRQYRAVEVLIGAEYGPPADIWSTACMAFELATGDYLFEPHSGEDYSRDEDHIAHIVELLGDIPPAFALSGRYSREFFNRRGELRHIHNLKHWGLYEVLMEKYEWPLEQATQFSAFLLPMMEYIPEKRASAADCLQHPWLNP
# Ramos = assay: Growth inhibition of human Ramos cells; type: functional; conditions: Homo sapiens, Ramos
# [11] = molecular target: Mitogen-activated protein kinase kinase kinase 20 (Homo sapiens) (UniProt Q9NYL2); assay: Inhibition of wild-type human partial length ZAK (M1 to L331 residues) expressed in bacterial expression system assessed as residual activity at 1 uM by Kinomescan method relative to control
# [12] = molecular target: G protein-coupled receptor kinase 4 (Homo sapiens) (UniProt P32298); assay: Inhibition of wild-type human full length GRK4 (M1 to C578 residues) expressed in bacterial expression system assessed as residual activity at 1 uM by Kinomescan method relative to control
# Chain of G protein-coupled receptor kinase 4 (Homo sapiens) (P32298 whole entry, looked up, the tested form may be a part): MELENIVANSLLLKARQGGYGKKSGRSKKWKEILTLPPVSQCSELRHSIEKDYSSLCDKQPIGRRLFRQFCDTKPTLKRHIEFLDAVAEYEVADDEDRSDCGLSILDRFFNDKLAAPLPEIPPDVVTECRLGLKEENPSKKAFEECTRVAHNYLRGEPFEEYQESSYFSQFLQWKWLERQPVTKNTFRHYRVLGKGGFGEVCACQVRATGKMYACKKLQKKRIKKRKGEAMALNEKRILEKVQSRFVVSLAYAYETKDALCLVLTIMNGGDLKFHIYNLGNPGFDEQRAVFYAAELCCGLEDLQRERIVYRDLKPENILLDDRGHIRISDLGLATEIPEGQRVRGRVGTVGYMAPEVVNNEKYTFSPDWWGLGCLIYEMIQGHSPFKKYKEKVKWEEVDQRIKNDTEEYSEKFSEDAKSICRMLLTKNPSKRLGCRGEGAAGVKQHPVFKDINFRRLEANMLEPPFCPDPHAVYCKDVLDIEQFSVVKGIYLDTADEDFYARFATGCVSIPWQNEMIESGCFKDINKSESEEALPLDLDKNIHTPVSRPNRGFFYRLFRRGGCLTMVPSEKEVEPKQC
# [13] = molecular target: Inhibitor of nuclear factor kappa-B kinase subunit beta (Homo sapiens) (UniProt O14920); assay: Inhibition of wild-type human full length IKK-beta (M1 to S756 residues) expressed in mammalian expression system assessed as residual activity at 1 uM by Kinomescan method relative to control
# [14] = molecular target: Mitogen-activated protein kinase 15 (Homo sapiens) (UniProt Q8TD08); assay: Inhibition of wild-type human partial length ERK8 (M1 to P437 residues) expressed in bacterial expression system assessed as residual activity at 1 uM by Kinomescan method relative to control
# SKM-1 = assay: Growth inhibition of human SKM1 cells; type: functional; conditions: Homo sapiens, SKM-1
# [15] = molecular target: Receptor tyrosine-protein kinase erbB-3 (Homo sapiens) (UniProt P21860); assay: Inhibition of wild-type human partial length ERBB3 (G684 to A987 residues) expressed in mammalian expression system assessed as residual activity at 1 uM by Kinomescan method relative to control
# Chain of Receptor tyrosine-protein kinase erbB-3 (Homo sapiens) (P21860 whole entry, the tested form may be a part): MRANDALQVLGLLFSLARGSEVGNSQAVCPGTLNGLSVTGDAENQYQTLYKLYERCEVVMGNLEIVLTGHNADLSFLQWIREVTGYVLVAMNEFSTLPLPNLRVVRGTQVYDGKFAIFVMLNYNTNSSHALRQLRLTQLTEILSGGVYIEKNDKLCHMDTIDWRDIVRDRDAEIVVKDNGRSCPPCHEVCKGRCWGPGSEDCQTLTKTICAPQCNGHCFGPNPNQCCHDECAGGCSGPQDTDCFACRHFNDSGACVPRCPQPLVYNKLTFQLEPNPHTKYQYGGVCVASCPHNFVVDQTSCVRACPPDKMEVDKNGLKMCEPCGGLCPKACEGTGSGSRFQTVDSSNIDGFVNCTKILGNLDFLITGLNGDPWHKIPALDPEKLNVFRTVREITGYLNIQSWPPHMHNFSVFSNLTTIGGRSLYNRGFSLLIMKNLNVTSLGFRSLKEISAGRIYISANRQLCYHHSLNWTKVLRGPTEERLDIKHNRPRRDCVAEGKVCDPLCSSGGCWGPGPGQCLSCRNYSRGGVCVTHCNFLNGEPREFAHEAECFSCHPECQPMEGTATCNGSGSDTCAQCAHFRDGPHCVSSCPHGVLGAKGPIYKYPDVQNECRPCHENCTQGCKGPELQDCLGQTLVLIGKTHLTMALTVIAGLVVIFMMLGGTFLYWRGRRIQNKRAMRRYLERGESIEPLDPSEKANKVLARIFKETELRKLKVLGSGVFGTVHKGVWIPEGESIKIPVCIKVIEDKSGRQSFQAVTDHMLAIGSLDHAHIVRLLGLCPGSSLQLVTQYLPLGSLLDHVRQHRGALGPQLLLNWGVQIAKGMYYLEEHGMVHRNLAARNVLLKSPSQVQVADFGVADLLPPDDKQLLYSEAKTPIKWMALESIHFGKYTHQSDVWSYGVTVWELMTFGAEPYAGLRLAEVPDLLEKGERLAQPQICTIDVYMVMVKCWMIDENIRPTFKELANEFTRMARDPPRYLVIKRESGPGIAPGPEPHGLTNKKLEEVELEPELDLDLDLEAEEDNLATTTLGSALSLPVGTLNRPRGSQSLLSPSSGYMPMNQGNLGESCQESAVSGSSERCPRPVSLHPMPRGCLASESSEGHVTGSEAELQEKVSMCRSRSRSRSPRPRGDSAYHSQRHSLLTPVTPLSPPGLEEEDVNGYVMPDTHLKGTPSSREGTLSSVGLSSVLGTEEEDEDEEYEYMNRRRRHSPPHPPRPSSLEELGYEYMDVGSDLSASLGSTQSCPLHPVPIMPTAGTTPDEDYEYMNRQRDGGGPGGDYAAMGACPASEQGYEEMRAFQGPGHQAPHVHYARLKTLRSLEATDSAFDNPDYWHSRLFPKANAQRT
# [16] = molecular target: Ephrin type-A receptor 7 (Homo sapiens) (UniProt Q15375); assay: Inhibition of wild-type human partial length EPHA7 (Y608 to S912 residues) expressed in bacterial expression system assessed as residual activity at 1 uM by Kinomescan method relative to control
# [17] = test system: Mast/stem cell growth factor receptor Kit (Homo sapiens), P10721 [V559D]; assay: Inhibition of human partial length KIT V559D mutant (Y545 to D952 residues) expressed in bacterial expression system assessed as residual activity at 1 uM by Kinomescan method relative to control
# Chain of Mast/stem cell growth factor receptor Kit (Homo sapiens), P10721 [V559D] (P10721 whole entry V559D, the tested form may be a part): as the sequence (P10721 whole entry, the tested form may be a part) above, with V559D counted along it
# [18] = molecular target: Serine/threonine-protein kinase DCLK1 (Homo sapiens) (UniProt O15075); assay: Inhibition of wild-type human partial length DCAMKL1 (L270 to A662 residues) expressed in mammalian expression system assessed as residual activity at 1 uM by Kinomescan method relative to control
# [19] = molecular target: Mitogen-activated protein kinase 13 (Homo sapiens) (UniProt O15264); assay: Inhibition of wild-type human full length p38-delta (M1 to L365 residues) expressed in bacterial expression system assessed as residual activity at 1 uM by Kinomescan method relative to control
# Chain of Mitogen-activated protein kinase 13 (Homo sapiens) (O15264 whole entry, the tested form may be a part): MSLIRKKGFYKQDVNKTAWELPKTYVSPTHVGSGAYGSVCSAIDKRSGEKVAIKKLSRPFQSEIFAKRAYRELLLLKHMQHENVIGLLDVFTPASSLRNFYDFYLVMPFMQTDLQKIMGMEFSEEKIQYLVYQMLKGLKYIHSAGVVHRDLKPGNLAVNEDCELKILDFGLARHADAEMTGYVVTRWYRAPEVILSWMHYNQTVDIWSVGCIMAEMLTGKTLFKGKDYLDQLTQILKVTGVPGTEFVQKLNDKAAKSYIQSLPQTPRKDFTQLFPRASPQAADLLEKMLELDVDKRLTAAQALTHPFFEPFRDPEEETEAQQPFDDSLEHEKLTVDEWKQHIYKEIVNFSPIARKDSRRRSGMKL
# [20] = molecular target: Tyrosine-protein kinase Lck (Homo sapiens) (UniProt P06239); assay: Inhibition of wild-type human partial length LCK (R207 to P509 residues) expressed in bacterial expression system assessed as residual activity at 1 uM by Kinomescan method relative to control
# SU-DHL-2 = assay: Growth inhibition of human SU-DHL-2 cells; type: functional; conditions: Homo sapiens, SU-DHL-2
# [21] = molecular target: Serine/threonine-protein kinase Nek4 (Homo sapiens) (UniProt P51957); assay: Inhibition of wild-type human full length NEK4 (M1 to F841 residues) expressed in mammalian expression system assessed as residual activity at 1 uM by Kinomescan method relative to control
# [22] = molecular target: cGMP-dependent protein kinase 2 (Homo sapiens) (UniProt Q13237); assay: Inhibition of wild-type human partial length PRKG2 (S422 to F762 residues) expressed in mammalian expression system assessed as residual activity at 1 uM by Kinomescan method relative to control
# [23] = molecular target: Serine/threonine-protein kinase Nek2 (Homo sapiens) (UniProt P51955); assay: Inhibition of wild-type human partial length NEK2 (M1 to K309 residues) expressed in bacterial expression system assessed as residual activity at 1 uM by Kinomescan method relative to control
# [24] = test system: Fibroblast growth factor receptor 3 (Homo sapiens), P22607 [G697C]; assay: Inhibition of human partial length FGFR3 G697C mutant (R442 to S771 residues) expressed in bacterial expression system assessed as residual activity at 1 uM by Kinomescan method relative to control
smiles,measurement,setting,value
C=CC(=O)Nc1cc(Nc2cc(-c3cccc(NC(=O)c4ccc(C(C)(C)C)cc4)c3C)cn(C)c2=O)ccc1C(=O)N1CCOCC1,Activity,[1],100%
same,Activity,[2],97%
same,Activity,[3],95%
same,Activity,[4],100%
same,Activity,[5],95%
same,Activity,[6],98%
same,Activity,[7],100%
same,Activity,[8],56%
same,Activity,[9],87%
same,Activity,[10],81%
same,GI50,Ramos,3.5 µM
same,Activity,[11],94%
same,Activity,[12],80%
same,Activity,[13],100%
same,Activity,[14],100%
same,GI50,SKM-1,7.1 µM
same,Activity,[15],88%
same,Activity,[16],98%
same,Activity,[17],93%
same,Activity,[18],95%
same,Activity,[19],84%
same,Activity,[20],97%
same,GI50,SU-DHL-2,3 µM
same,Activity,[21],100%
same,Activity,[22],96%
same,Activity,[23],99%
same,Activity,[24],100%

# Source: ChEMBL document CHEMBL4024706 (Eur J Med Chem, 2017)
